Reference: ChEMBL document CHEMBL1201862, “PubChem BioAssay data set” (2004)
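Dose response: 5 concentrations. Exposure: 48 h. Format: 96-well plates. Endpoint: linear interpolation; highest concentration if not reached. GI50: concentration for 50% inhibition of growth.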 The source made the active and inactive calls. No stated cut-off is given here; in the data, active = GI50 up to about 1.1 µM and inactive = higher.

How the values were obtained:
Experiment in all cases: growth of human tumour cells (NCI), 48 h
BT-549 = tested on: BT-549
COLO 205 = tested on: COLO 205
HL-60 = tested on: HL-60
HOP-62 = tested on: HOP-62
HOP-92 = tested on: HOP-92
KM12 = tested on: KM12
LOX IMVI = tested on: LOX IMVI
M14 = tested on: M14
MCF7 = tested on: MCF7
MDA-MB-231 = tested on: MDA-MB-231
MOLT-4 = tested on: MOLT-4
Malme-3M = tested on: Malme-3M
NCI-H23 = tested on: NCI-H23
NCI-H522 = tested on: NCI-H522
SF-295 = tested on: SF-295
SK-MEL-28 = tested on: SK-MEL-28
SNB-19 = tested on: SNB-19
SW-620 = tested on: SW-620
T47D = tested on: T47D
SNB-75 = tested on: SNB-75

| SMILES | GI50 (BT-549) | GI50 (COLO 205) | GI50 (HL-60) | GI50 (HOP-62) | GI50 (HOP-92) | GI50 (KM12) | GI50 (LOX IMVI) | GI50 (M14) | GI50 (MCF7) | GI50 (MDA-MB-231) | GI50 (MOLT-4) | GI50 (Malme-3M) | GI50 (NCI-H23) | GI50 (NCI-H522) | GI50 (SF-295) | GI50 (SK-MEL-28) | GI50 (SNB-19) | GI50 (SW-620) | GI50 (T47D) | GI50 (SNB-75) |
| --- | --- | --- | --- | --- | --- | --- | --- | --- | --- | --- | --- | --- | --- | --- | --- | --- | --- | --- | --- | --- |
| C/C(NC(=O)c1ccccc1)=C(/C(=O)c1ccccc1)[C@@H]1OC(C)(C)O[C@@H]1[C@H]1COC(C)(C)O1 | 25.8 µM (inactive) | 22.3 µM (inactive) | 16 µM (inactive) | 33.1 µM (inactive) | 19.4 µM (inactive) | 28.6 µM (inactive) | 19.9 µM (inactive) | 30.8 µM (inactive) | 40.8 µM (inactive) | 23.7 µM (inactive) | 15.5 µM (inactive) | 37.6 µM (inactive) | 22.9 µM (inactive) | 17.6 µM (inactive) | 30.9 µM (inactive) | 52.4 µM (inactive) | 46.2 µM (inactive) | 20.3 µM (inactive) |  |  |
| COC(=O)C1=C(C)NC(C)=C(C(=O)OC)C1c1cccc(NO)c1 | 18.4 µM (inactive) | 16.7 µM (inactive) |  | 32.3 µM (inactive) | 11.5 µM (inactive) | 15.9 µM (inactive) | 16 µM (inactive) | 18.9 µM (inactive) | 19 µM (inactive) | 16.6 µM (inactive) |  | 16.4 µM (inactive) | 16.3 µM (inactive) | 7 µM (inactive) | 25.9 µM (inactive) | 15.1 µM (inactive) | > 100 µM (inactive) | 13.7 µM (inactive) | 13.5 µM (inactive) |  |
| CN(C)CCO/N=C1/C=C2CC[C@H]3[C@@H]4CC[C@H](O)[C@@]4(C)CC[C@@H]3[C@@]2(C)CC1 | 2.61 µM (inactive) | 16.2 µM (inactive) |  | 12.1 µM (inactive) | 7.85 µM (inactive) | 10.8 µM (inactive) | 15.9 µM (inactive) | 8.26 µM (inactive) | 22.8 µM (inactive) | 12.9 µM (inactive) | 8.55 µM (inactive) |  | 11.4 µM (inactive) | 1.67 µM (inactive) | 13.9 µM (inactive) | 13.8 µM (inactive) | 27.4 µM (inactive) | 10.7 µM (inactive) | 23.9 µM (inactive) | 3.48 µM (inactive) |
| Cn1c(-c2cccc([N+](=O)[O-])c2)[n+](C)c2ccccc21 | > 100 µM (inactive) | 17.7 µM (inactive) | 29.2 µM (inactive) | > 100 µM (inactive) | > 100 µM (inactive) | > 100 µM (inactive) | > 100 µM (inactive) | > 100 µM (inactive) | > 100 µM (inactive) | > 100 µM (inactive) | > 100 µM (inactive) | 89.3 µM (inactive) | 25.7 µM (inactive) |  | > 100 µM (inactive) | > 100 µM (inactive) | > 100 µM (inactive) | > 100 µM (inactive) | > 100 µM (inactive) | > 100 µM (inactive) |
| COc1cc2c(cc1O)c(O)cc1c3cc(OC)c(OC)cc3c[n+](C)c21 | 23 µM (inactive) | > 43.3 µM (inactive) |  | 34.1 µM (inactive) |  | > 100 µM (inactive) | 16.2 µM (inactive) | > 100 µM (inactive) | 8.73 µM (inactive) | 35.3 µM (inactive) | 2.86 µM (inactive) | 32.9 µM (inactive) | 4.69 µM (inactive) | 0.0225 µM (active) | 18.7 µM (inactive) | > 100 µM (inactive) | 1.13 µM (inactive) | 28.2 µM (inactive) | 1.45 µM (inactive) | 35.2 µM (inactive) |
| CNc1nc(C(N)=O)c(N)s1 | > 100 µM (inactive) | > 100 µM (inactive) | > 100 µM (inactive) | > 100 µM (inactive) | > 100 µM (inactive) | > 100 µM (inactive) | > 100 µM (inactive) | > 100 µM (inactive) |  | > 100 µM (inactive) | > 100 µM (inactive) | > 100 µM (inactive) | > 100 µM (inactive) | > 100 µM (inactive) | > 100 µM (inactive) | > 100 µM (inactive) | > 100 µM (inactive) | > 100 µM (inactive) | > 100 µM (inactive) |  |
| O=C(Nc1ccc2[nH]c(C(=O)N3CC(CCl)c4ccc([N+](=O)[O-])cc43)cc2c1)c1cc2ccccc2o1 (stereo not drawn) | > 1100 µM (inactive) | > 1100 µM (inactive) | > 1100 µM (inactive) | > 1100 µM (inactive) | > 1100 µM (inactive) | > 1100 µM (inactive) | > 1100 µM (inactive) | > 1100 µM (inactive) | > 1100 µM (inactive) | > 1100 µM (inactive) | > 1100 µM (inactive) | > 1100 µM (inactive) | > 1100 µM (inactive) | 258 µM (inactive) | 716 µM (inactive) | > 1100 µM (inactive) | > 1100 µM (inactive) | > 1100 µM (inactive) | > 1100 µM (inactive) |  |
| COc1ccc(C(=O)c2cc(OC)c(OC)c(OC)c2)cc1OC | 5.41 µM (inactive) | 4.04 µM (inactive) | 2.67 µM (inactive) | 4.57 µM (inactive) |  | 0.815 µM (active) | 7.83 µM (inactive) | 8.83 µM (inactive) | 2.24 µM (inactive) | 6.17 µM (inactive) | 4.17 µM (inactive) | 5.93 µM (inactive) | 10.2 µM (inactive) | 3.63 µM (inactive) | 1.82 µM (inactive) | 5.94 µM (inactive) | 3.21 µM (inactive) | 3.52 µM (inactive) |  | 4.04 µM (inactive) |
| S=C(/N=c1\sc(Nc2ccc(Cl)cc2)nc2sc3c(c12)CCN(N1CCc2c(sc4nc(Nc5ccc(Cl)cc5)s/c(=N\C(=S)Nc5ccc(Cl)cc5)c24)C1)C3)Nc1ccc(Cl)cc1 | > 100 µM (inactive) | 57.9 µM (inactive) |  | 36.1 µM (inactive) |  |  |  | 60 µM (inactive) | 40.6 µM (inactive) | 18.6 µM (inactive) | 67 µM (inactive) | > 100 µM (inactive) | 53.7 µM (inactive) | 96.2 µM (inactive) | 38.7 µM (inactive) | 38.2 µM (inactive) | 55.2 µM (inactive) | 38.8 µM (inactive) |  | 26.7 µM (inactive) |
| CC12CCC(C(Nc3cc(C(F)(F)F)cc(C(F)(F)F)c3)C1=O)C2(C)C (stereo not drawn) | > 100 µM (inactive) | > 100 µM (inactive) |  | > 100 µM (inactive) |  | > 100 µM (inactive) | > 100 µM (inactive) | > 100 µM (inactive) | > 100 µM (inactive) | > 100 µM (inactive) | > 100 µM (inactive) | > 100 µM (inactive) | > 100 µM (inactive) |  | > 100 µM (inactive) | > 100 µM (inactive) | > 100 µM (inactive) | > 100 µM (inactive) | > 100 µM (inactive) |  |
| COc1ccc2[nH]cc(C(=O)C(=O)NC34CC5CC(CC(C5)C3)C4)c2c1 | 43.3 µM (inactive) | 6.9 µM (inactive) |  | 16.5 µM (inactive) | 29.5 µM (inactive) | > 26.9 µM (inactive) | 7.21 µM (inactive) | 13.9 µM (inactive) | 10.1 µM (inactive) | 40.1 µM (inactive) | 2.66 µM (inactive) | 46.9 µM (inactive) | > 72.6 µM (inactive) | 36.7 µM (inactive) | 6.9 µM (inactive) | 15.4 µM (inactive) | 53.5 µM (inactive) | 38.9 µM (inactive) | 54.1 µM (inactive) | 37.9 µM (inactive) |
| CN(Cc1cnc2nc(N)nc(N)c2n1)c1ccc(C(=O)N[C@@H](CCS(=O)(=O)O)C(=O)O)cc1 | 0.404 µM (active) | > 100 µM (inactive) |  | 1.99 µM (inactive) | > 100 µM (inactive) | 1.64 µM (inactive) | 0.0526 µM (active) | 0.111 µM (active) | 0.127 µM (active) | > 100 µM (inactive) | 0.745 µM (active) |  | 0.458 µM (active) | 0.574 µM (active) | 0.0766 µM (active) | > 100 µM (inactive) | 0.582 µM (active) | 0.0824 µM (active) | > 100 µM (inactive) |  |
| N#Cc1nc(C2CCC(=O)O2)oc1N (stereo not drawn) | > 100 µM (inactive) | > 100 µM (inactive) | > 100 µM (inactive) | > 100 µM (inactive) |  | > 100 µM (inactive) | 72.9 µM (inactive) | > 100 µM (inactive) | > 100 µM (inactive) | > 100 µM (inactive) | > 100 µM (inactive) | 13.4 µM (inactive) | > 100 µM (inactive) |  | > 100 µM (inactive) | > 100 µM (inactive) | > 100 µM (inactive) | > 100 µM (inactive) |  | 29 µM (inactive) |
| COc1ccc(/N=N/C(=N/NC(=O)c2cc(Cl)ccc2C(=O)c2ccccc2)c2ccc(N(CCC#N)CCC#N)cc2C)cc1 | 29.4 µM (inactive) | 17.6 µM (inactive) |  | 20.1 µM (inactive) |  | 21.4 µM (inactive) |  | 18.2 µM (inactive) | 25.4 µM (inactive) | 15.1 µM (inactive) | 9.08 µM (inactive) | 26.2 µM (inactive) | 18 µM (inactive) |  | 26.1 µM (inactive) | 25.8 µM (inactive) | 25.9 µM (inactive) | 22.3 µM (inactive) | 15 µM (inactive) | 27.8 µM (inactive) |
| CC[C@H]1C=CCC[C@@]2(C[C@@H]3CC[C@@H]4[C@H](C(=O)OCCCCCCCCCCCCCCCC(=O)N(CCCN)CCCCN)[C@]5(CCC[C@@H](C)O5)NC(=[N+]34)N2)O1 | 0.138 µM (active) | 0.0336 µM (active) |  | 0.0415 µM (active) | 0.0224 µM (active) | 0.0459 µM (active) | 0.018 µM (active) | < 0.01 µM (active) | 0.0684 µM (active) | 0.275 µM (active) | 0.0155 µM (active) | 0.04 µM (active) | 0.0724 µM (active) | 0.0425 µM (active) | 0.024 µM (active) | 0.233 µM (active) | 0.381 µM (active) | 0.0547 µM (active) |  | 0.0533 µM (active) |
